{
  "source": "patent US20230337674A1",
  "about": "“FUNGICIDAL COMPOSITIONS” (SYNGENTA CROP PROTECTION AG, priority 2020, published 2023)",
  "key": {"Corynespora cassiicola": {"tested_on": "Corynespora cassiicola", "assay": "Corynespora cassiicola growth inhibition in nutrient broth (microtiter plate)", "format": "cell-based", "conditions": "read-out: Observed Activity (%)", "procedure": "Corynespora cassiicola (Target Spot of Soybean, Target Leaf Spot of Tomato):\n(§1) Conidia of the fungus from cryogenic storage were directly mixed into nutrient broth (PDB potato dextrose broth). A DMSO solution of the test compounds was placed into a microtiter plate (96-well format) and the nutrient broth containing the fungal spores was added to it. The test plates were incubated at 24° C. and the inhibition of growth was determined photometrically after 3-4 days at 620 nm."}, "Septoria tritici": {"tested_on": "Septoria tritici", "assay": "Septoria tritici growth inhibition in nutrient broth (microtiter plate)", "format": "cell-based", "conditions": "Zymoseptoria tritici, read-out: Observed Activity (%)", "procedure": "Septoria tritici (Leaf Blotch):\nas §1, with “72 hrs.” for “3-4 days at 620 nm.”"}, "Phakopsora pachyrhizi": {"tested_on": "Phakopsora pachyrhizi", "assay": "Phakopsora pachyrhizi on leaf disks from treated whole soybean plants", "format": "in vivo", "conditions": "evaluation 11 to 14 days after inoculation; for inhibition at 0.5 g/ha / inhibition at 1 g/ha / inhibition at 2 g/ha / inhibition at 0.25 g/ha: Phakopsora pachyrhizi, foliar", "procedure": "Phakopsora pachyrhizi (Soybean Rust):\nWhole soybean plants are treated with the recited active ingredients 4 weeks after planting. 1 day after spraying leaf disks are cut from the first trifoliate leaf. Five repetitions at each rate are conducted. The leaf disks are inoculated with Phakopsora pachyrhizi (Asian soybean rust) one day after treatment. Evaluation of the leaf disks is conducted 11 to 14 days after inoculation and the activity is derived from the relation of the treated vs untreated, infested check. The rates of the active ingredients used are given in Table as g active ingredient (a.i.)/ha."}, "[1]": {"conditions": "single active, 0.5 g/ha, read-out: Observed Activity (%)"}, "[2]": {"conditions": "single active, read-out: Observed Activity (%)"}},
  "note": "Where “and” joins values, the source holds several entries; their conditions need not be identical. Identical values can stand only once. Like-named read-outs stand apart in the source and are kept apart here.",
  "data": [
    {"smiles": "CNC(=S)c1ccc(-c2noc(C(F)(F)F)n2)cc1", "note": "[Compound A-1.2, N-methyl-4-[5-(trifluoromethyl)-1,2,4-oxadiazol-3-yl]benzenecarbothioamide]", "values": [
      {"measurement": "inhibition at 5 ppm", "setting": "Corynespora cassiicola; single active, 5 ppm, 3-4 days, 24° C.", "value": 0, "unit": "%"},
      {"measurement": "inhibition at 10 ppm", "setting": "Corynespora cassiicola; single active, 10 ppm, 3-4 days, 24° C.", "value": 0, "unit": "%"},
      {"measurement": "inhibition at 20 ppm", "setting": "Corynespora cassiicola; single active, 20 ppm, 3-4 days, 24° C.", "value": 0, "unit": "%"},
      {"measurement": "inhibition at 5 ppm", "setting": "Septoria tritici; single active, 72 hrs, 24° C.", "value": 50, "unit": "%"},
      {"measurement": "inhibition at 0.5 g/ha", "setting": "Phakopsora pachyrhizi; [1]", "value": 0, "unit": "%"},
      {"measurement": "inhibition at 1 g/ha", "setting": "Phakopsora pachyrhizi; [2]", "value": 88, "unit": "%"},
      {"measurement": "inhibition at 2 g/ha", "setting": "Phakopsora pachyrhizi; [2]", "value": 95, "unit": "%"}
    ]},
    {"smiles": "C[C@@H]1CC(C)(C)c2cccc(NC(=O)c3cn(C)nc3C(F)F)c21", "note": "[Inpyrfluxam, 3-(difluoromethyl)-1-methyl-N-[(3R)-1,1,3-trimethylindan-4-yl]pyrazole-4-carboxamide, reference compound]", "values": [
      {"measurement": "inhibition at 0.01 ppm", "setting": "Corynespora cassiicola", "value": 0, "unit": "%"},
      {"measurement": "inhibition at 0.02 ppm", "setting": "Corynespora cassiicola", "value": 0, "unit": "%"},
      {"measurement": "inhibition at 0.02 ppm", "setting": "Septoria tritici; 72 h", "value": 0, "unit": "%"},
      {"measurement": "inhibition at 0.04 ppm", "setting": "Septoria tritici; 72 h", "value": 20, "unit": "%"},
      {"measurement": "inhibition at 0.25 g/ha", "setting": "Phakopsora pachyrhizi; read-out: Observed Activity (%), single active, 0.25 g/ha", "value": 50, "unit": "%"},
      {"measurement": "Observed Activity (%)", "setting": "Phakopsora pachyrhizi; single active, 0.5 g/ha", "value": "46% and 82%"}
    ]},
    {"smiles": "O=C(Nc1ccccc1F)c1ccc(-c2noc(C(F)(F)F)n2)cc1", "note": "[Compound A-1.3, N-(2-fluorophenyl)-4-[5-(trifluoromethyl)-1,2,4-oxadiazol-3-yl]benzamide]", "values": [
      {"measurement": "inhibition at 0.5 g/ha", "setting": "Phakopsora pachyrhizi; [1]", "value": 0, "unit": "%"},
      {"measurement": "inhibition at 1 g/ha", "setting": "Phakopsora pachyrhizi; [2]", "value": 29, "unit": "%"},
      {"measurement": "inhibition at 2 g/ha", "setting": "Phakopsora pachyrhizi; [2]", "value": 78, "unit": "%"}
    ]},
    {"smiles": "CNC(=O)C(F)(F)c1ccc(-c2noc(C(F)(F)F)n2)cc1", "note": "[Compound A-1.1, 2,2-difluoro-N-methyl-2-[4-[5-(trifluoromethyl)-1,2,4-oxadiazol-3-yl]phenyl]acetamide]", "values": [
      {"measurement": "inhibition at 5 ppm", "setting": "Septoria tritici; single active, 72 hrs, 24° C.", "value": 20, "unit": "%"},
      {"measurement": "inhibition at 10 ppm", "setting": "Septoria tritici; single active, 10 ppm, 72 hrs, 24° C.", "value": 20, "unit": "%"},
      {"measurement": "inhibition at 20 ppm", "setting": "Septoria tritici; single active, 20 ppm, 72 hrs, 24° C.", "value": 50, "unit": "%"},
      {"measurement": "inhibition at 0.25 g/ha", "setting": "Phakopsora pachyrhizi; single active, 0.25 g/ha, read-out: Observed Activity (%)", "value": 0, "unit": "%"},
      {"measurement": "inhibition at 0.5 g/ha", "setting": "Phakopsora pachyrhizi; [1]", "value": 3, "unit": "%"},
      {"measurement": "inhibition at 1 g/ha", "setting": "Phakopsora pachyrhizi; [2]", "value": 54, "unit": "%"}
    ]}
  ]
}
